Measurements taken from patent US20100093721A1, “PHENYL AND HETEROARYL SUBSTITUTED THIENO[2,3-d]PYRIMIDINES AND THEIR USE AS ADENOSINE A2a RECEPTOR ANTAGONISTS” (priority 2008, published 2010).
pKi: −log10 of the molar value.

Key:
[1] = target: T1, human adenosine A2a receptor (Homo sapiens, UniProt P29274); assay: Adenosine A2a Receptor Functional Assay (A2AGAL2); type: cell-based; settings: CHO-K1 cells, cAMP inducible beta-galactosidase reporter, 15 nM NECA agonist challenge
T1 construct: expressed in transfected cells; host or cells: CHO-K1
T1 sequence (P29274 whole entry): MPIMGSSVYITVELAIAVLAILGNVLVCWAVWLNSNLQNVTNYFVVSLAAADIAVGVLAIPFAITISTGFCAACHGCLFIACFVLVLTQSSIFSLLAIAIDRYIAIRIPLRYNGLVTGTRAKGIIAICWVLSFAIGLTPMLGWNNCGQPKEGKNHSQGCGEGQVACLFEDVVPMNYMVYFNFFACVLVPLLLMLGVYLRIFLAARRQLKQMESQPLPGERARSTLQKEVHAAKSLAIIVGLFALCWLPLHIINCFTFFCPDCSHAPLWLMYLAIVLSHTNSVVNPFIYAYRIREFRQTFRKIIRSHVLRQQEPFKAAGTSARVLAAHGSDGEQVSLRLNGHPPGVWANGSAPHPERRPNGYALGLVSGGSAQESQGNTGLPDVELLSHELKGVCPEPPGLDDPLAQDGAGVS
Method: Adenosine A2a Receptor Functional Assay (A2AGAL2)
Prior to assay, these plates were cultured for two days at 37° C., 5% CO2, 90% Rh. On the day of the functional assay, culture media was removed and replaced with 45 uL assay medium (Hams/F-12 Modified (Mediatech #10-080CV) supplemented w/0.1% BSA). Test compounds were diluted and 11 point curves created at a 1000× concentration in 100% DMSO. Immediately after addition of assay media to the cell plates, 50 nL of the appropriate test compound antagonist or agonist control curves were added to cell plates using a Cartesian Hummingbird. […] A control curve of NECA, a DMSO/Media control, and a single dose of Forskolin (Sigma F3917) were also included on each plate. After additions, cell plates were allowed to incubate at 37° C., 5% CO2, 90% Rh for 5.5-6 hours. After incubation, media was removed, and cell plates were washed 1×50 uL with DPBS w/o Ca & Mg (Mediatech 21-031-CV). Into dry wells, 20 uL of 1× Reporter Lysis Buffer (Promega E3971 (diluted in dH2O from 5× stock)) was added to each well and plates frozen at −20° C. overnight. For β-galactosidase enzyme colorimetric assay, plates were thawed out at room temperature and 20 μL 2× assay buffer (Promega) was added to each well. Color was allowed to develop at 37° C., 5% CO2, 90% Rh for 1-1.5 h or until reasonable signal appeared. The colorimetric reaction was stopped with the addition of 60 μL/well 1M sodium carbonate. Plates were counted at 405 nm on a SpectraMax Microplate Reader (Molecular Devices). Data was analyzed in Microsoft Excel and IC/EC50 curves were fit using a standardized macro.

[2] = target: T2, human adenosine A1 receptor (Homo sapiens, UniProt P30542); assay: Adenosine A1 Receptor Functional Assay (A1GAL2); type: cell-based; settings: CHO-K1 cells, cAMP inducible beta-galactosidase reporter, 4 nM r-PIA/1 uM Forskolin challenge
T2 construct: expressed in transfected cells; host or cells: CHO-K1
T2 sequence (P30542 1-326): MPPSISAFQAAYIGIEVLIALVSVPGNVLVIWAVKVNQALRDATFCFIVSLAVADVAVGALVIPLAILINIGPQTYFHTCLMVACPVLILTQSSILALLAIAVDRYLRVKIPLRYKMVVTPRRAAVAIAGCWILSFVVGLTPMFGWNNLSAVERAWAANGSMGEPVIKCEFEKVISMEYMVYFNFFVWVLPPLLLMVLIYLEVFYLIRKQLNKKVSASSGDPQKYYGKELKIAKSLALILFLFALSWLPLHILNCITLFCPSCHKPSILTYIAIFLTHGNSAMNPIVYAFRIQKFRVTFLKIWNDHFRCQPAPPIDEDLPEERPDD
Method: Adenosine A1 Receptor Functional Assay (A1GAL2)
To initiate the functional assay, cryopreserved CHO-K1 cells overexpressing the human adenosine A1 receptor and containing a cAMP inducible beta-galactosidase reporter gene were thawed, centrifuged, DMSO containing media removed, and then seeded with fresh culture media into clear 384-well tissue culture treated plates (BD #353961) at a concentration of 10K cells/well. Prior to assay, these plates were cultured for two days at 37° C., 5% CO2, 90% Rh. On the day of the functional assay, culture media was removed and replaced with 45 uL assay medium (Hams/F-12 Modified (Mediatech #10-080CV) supplemented w/0.1% BSA). Test compounds were diluted and 11 point curves created at a 1000× concentration in 100% DMSO. Immediately after addition of assay media to the cell plates, 50 nL of the appropriate test compound antagonist or agonist control curves were added to cell plates using a Cartesian Hummingbird. Compound curves were allowed to incubate at room temperature on cell plates for approximately 15 minutes before addition of a 4 nM r-PIA (Sigma P4532)/1 uM Forskolin (Sigma F3917) agonist challenge (5 uL volume). A control curve of r-PIA in 1 uM Forskolin, a DMSO/Media control, and a single dose of Forskolin were also included on each plate. After additions, cell plates were allowed to incubate at 37° C., 5% CO2, 90% Rh for 5.5-6 hours. After incubation, media was removed, and cell plates were washed 1×50 uL with DPBS w/o Ca & Mg (Mediatech 21-031-CV). Into dry wells, 20 uL of 1× Reporter Lysis Buffer (Promega E3971 (diluted in dH2O from 5× stock)) was added to each well and plates frozen at −20° C. overnight. For β-galactosidase enzyme calorimetric assay, plates were thawed out at room temperature and 20 μL 2× assay buffer (Promega) was added to each well. Color was allowed to develop at 37° C., 5% CO2, 90% Rh for 1-1.5 h or until reasonable signal appeared. The calorimetric reaction was stopped with the addition of 60 μL/well 1M sodium carbonate. Plates were counted at 405 nm on a SpectraMax Microplate Reader (Molecular Devices). Data was analyzed in Microsoft Excel and IC/EC50 curves were fit using a standardized macro.

[3] = target: T3, human A2a adenosine receptor (Homo sapiens, UniProt P29274); assay: Ligand Binding Assay for Adenosine A2a Receptor; settings: HEK293 plasma membrane, radioligand [3H]CGS21680; read-out: A2A-B Ki
T3 construct: purchased PerkinElmer RB-HA2a; host or cells: HEK293 plasma membranes
T3 sequence (P29274 whole entry): as the sequence (P29274 whole entry) above
Method: Ligand Binding Assay for Adenosine A2a Receptor
Ligand binding assay of adenosine A2a receptor was performed using plasma membrane of HEK293 cells containing human A2a adenosine receptor (PerkinElmer, RB-HA2a) and radioligand [^3H]CGS21680 (PerkinElmer, NET1021). Assay was set up in 96-well polypropylene plate in total volume of 200 μL by sequentially adding 20 μL 1:20 diluted membrane, 130 μL assay buffer (50 mM Tris.HCl, pH7.4 10 mM MgCl2, 1 mM EDTA) containing [^3H] CGS21680, 50 μL diluted compound (4×) or vehicle control in assay buffer. Nonspecific binding was determined by […] NECA. Reaction was carried out at room temperature for 2 hours before filtering through 96-well GF/C filter plate pre-soaked in 50 mM Tris.HCl, pH7.4 containing 0.3% polyethylenimine. Plates were then washed 5 times with cold 50 mM Tris.HCl, pH7.4, dried and sealed at the bottom. Microscintillation fluid 30 μL was added to each well and the top sealed. Plates were counted on Packard Topcount for [^3H]. Data was analyzed in Microsoft Excel and GraphPad Prism programs. (Varani, K.; Gessi, S.; Dalpiaz, A.; Borea, P. A. British Journal of Pharmacology, 1996, 117, 1693)

| SMILES | pKi [1] | pKi [2] | pKi [3] |
| --- | --- | --- | --- |
| Cc1ccc(-c2nc(N)c3cc(CCc4ccc(F)cc4)sc3n2)o1 [Example 29, 6-[2-(4-Fluoro-phenyl)-ethyl]-2-(5-methyl-furan-2-yl)-thieno[2,3-d]pyrimidin-4-ylamine] | 7.21 | 5.80 | 8.18 |
| Cc1ccc(-c2nc(N)c3cc(/C=C/c4ccccc4)sc3n2)o1 [Example 33, 2-(5-Methyl-furan-2-yl)-6-styryl-thieno[2,3-d]pyrimidin-4-ylamine] | 6.63 | 5.48 | 7.58 |
| COc1ccccc1C(O)c1cc2c(N)nc(-c3ccc(C)o3)nc2s1 (stereo not drawn) [Example 11, [4-Amino-2-(5-methyl-furan-2-yl)-thieno[2,3-d]pyrimidin-6-yl]-(2-methoxy-phenyl)-methanol] | 8.70 | 7.99 | 8.17 |
| Cc1ccc(-c2nc(N)c3cc(CCc4ccccc4)sc3n2)o1 [Example 22, 2-(5-Methyl-furan-2-yl)-6-phenethyl-thieno[2,3-d]pyrimidin-4-ylamine] | 6.72 | 5.56 | 7.30 |

More lines, in order of rising pKi [1], values ahead:

| pKi [1] | pKi [2] | pKi [3] | SMILES |
| --- | --- | --- | --- |
| 6.64 | 6.30 | 7.00 | Cc1ccc(-c2nc(N)c3cc(C(=O)c4cccc(CN5CCOCC5)c4)sc3n2)o1 [Example 5, [4-Amino-2-(5-methyl-furan-2-yl)-thieno[2,3-d]pyrimidin-6-yl]-(3-morpholin-4-ylmethyl-phenyl)-methanone] |
| 7.79 | 5.83 | 7.33 | Cc1csc(-c2nc(N)c3cc(Cc4ccccc4)sc3n2)n1 [Example 14, 6-Benzyl-2-(4-methyl-thiazol-2-yl)-thieno[2,3-d]pyrimidin-4-ylamine] |
| 7.95 | 6.65 | 7.75 | Nc1nc(-c2ccc(C(F)F)o2)nc2sc(C(O)c3ccccc3)cc12 (stereo not drawn) [Example 41, [4-Amino-2-(5-difluoromethyl-furan-2-yl)-thieno[2,3-d]pyrimidin-6-yl]-phenyl-methanol] |
| 7.99 | 6.94 | 7.29 | COc1ccccc1Cc1cc2c(N)nc(-c3ccc(C)o3)nc2s1 [Example 12, 6-(2-Methoxy-benzyl)-2-(5-methyl-furan-2-yl)-thieno[2,3-d]pyrimidin-4-ylamine] |
